Laboratory results published in EP4660182A1, “NAV1.7- AND/OR NAV1.8-INHIBITING ARYL PYRIDINE COMPOUNDS, PROCESSES FOR THE PREPARATION THEREOF, COMPOSITIONS, USES, METHODS FOR TREATMENT USING SAME, AND KITS” (Eurofarma Laboratórios S.A., priority 2023, dated 2024).

Key:
[1] = target: T1, human sodium channels Nav 1.8 (Homo sapiens, UniProt Q9Y5Y9); assay: Automated whole-cell voltage-clamp (ScreenPatch 384P) sodium current block, Nav 1.8; format: cell-based; details: CHO cells stably expressing human Nav 1.8; inactivation step -40 mV 8 s, test step 10 mV (TP1A); eight concentrations; exposure at least five minutes; room temperature; read-out: Nav1.8 IC50
T1 construct: expressed in transfected cells
T1 sequence (Q9Y5Y9 whole entry): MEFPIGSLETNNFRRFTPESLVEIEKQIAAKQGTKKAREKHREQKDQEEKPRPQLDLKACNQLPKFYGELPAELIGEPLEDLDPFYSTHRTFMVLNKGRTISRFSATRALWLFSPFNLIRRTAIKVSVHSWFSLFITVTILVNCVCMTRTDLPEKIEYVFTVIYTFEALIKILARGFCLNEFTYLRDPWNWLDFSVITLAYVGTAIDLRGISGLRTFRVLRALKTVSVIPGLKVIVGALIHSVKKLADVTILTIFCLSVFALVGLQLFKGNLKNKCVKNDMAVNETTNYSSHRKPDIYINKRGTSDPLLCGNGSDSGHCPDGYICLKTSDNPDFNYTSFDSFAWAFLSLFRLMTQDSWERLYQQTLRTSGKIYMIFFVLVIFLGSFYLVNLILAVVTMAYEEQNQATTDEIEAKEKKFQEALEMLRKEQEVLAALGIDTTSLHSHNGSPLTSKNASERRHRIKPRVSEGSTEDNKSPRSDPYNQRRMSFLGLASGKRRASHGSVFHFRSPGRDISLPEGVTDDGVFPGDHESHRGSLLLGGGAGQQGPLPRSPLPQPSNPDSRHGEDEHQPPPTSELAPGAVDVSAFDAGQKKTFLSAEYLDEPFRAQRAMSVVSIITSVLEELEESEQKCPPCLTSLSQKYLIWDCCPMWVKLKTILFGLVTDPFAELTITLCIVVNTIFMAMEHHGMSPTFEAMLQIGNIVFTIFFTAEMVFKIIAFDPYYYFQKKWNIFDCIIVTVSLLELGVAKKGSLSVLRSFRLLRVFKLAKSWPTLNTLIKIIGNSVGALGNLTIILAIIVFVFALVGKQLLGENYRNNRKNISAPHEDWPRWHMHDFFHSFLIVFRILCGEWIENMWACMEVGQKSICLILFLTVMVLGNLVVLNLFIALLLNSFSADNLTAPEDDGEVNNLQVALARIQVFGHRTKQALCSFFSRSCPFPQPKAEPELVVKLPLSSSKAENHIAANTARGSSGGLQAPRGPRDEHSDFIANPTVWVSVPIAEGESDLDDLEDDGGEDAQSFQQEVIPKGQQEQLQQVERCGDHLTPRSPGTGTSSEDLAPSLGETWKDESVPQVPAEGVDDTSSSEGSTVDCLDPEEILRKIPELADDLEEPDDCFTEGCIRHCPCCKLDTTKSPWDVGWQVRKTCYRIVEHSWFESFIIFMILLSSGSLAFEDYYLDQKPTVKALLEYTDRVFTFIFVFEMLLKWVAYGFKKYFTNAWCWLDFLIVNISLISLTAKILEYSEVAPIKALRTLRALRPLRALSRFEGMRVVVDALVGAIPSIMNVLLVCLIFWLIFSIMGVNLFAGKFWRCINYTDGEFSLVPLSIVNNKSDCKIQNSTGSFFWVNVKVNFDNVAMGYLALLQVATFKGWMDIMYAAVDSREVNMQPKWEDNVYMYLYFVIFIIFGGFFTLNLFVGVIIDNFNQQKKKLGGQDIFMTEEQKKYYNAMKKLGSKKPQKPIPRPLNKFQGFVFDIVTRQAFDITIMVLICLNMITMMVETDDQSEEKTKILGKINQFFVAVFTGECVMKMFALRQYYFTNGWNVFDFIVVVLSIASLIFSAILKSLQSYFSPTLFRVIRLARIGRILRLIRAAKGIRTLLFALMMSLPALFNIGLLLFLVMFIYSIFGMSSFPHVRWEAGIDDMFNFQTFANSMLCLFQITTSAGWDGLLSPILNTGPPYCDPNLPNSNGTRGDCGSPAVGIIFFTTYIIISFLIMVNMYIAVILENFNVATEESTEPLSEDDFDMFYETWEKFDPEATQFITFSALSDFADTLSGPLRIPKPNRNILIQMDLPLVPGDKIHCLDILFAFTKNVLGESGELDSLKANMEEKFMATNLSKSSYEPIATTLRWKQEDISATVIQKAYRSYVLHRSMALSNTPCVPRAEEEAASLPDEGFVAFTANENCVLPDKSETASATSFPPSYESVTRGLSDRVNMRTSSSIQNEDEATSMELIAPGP
Method: (§1) Biological assays were performed on Chinese hamster ovary (CHO) cells that express human sodium channels Nav 1.8 or Nav 1.7 in a stable manner.
(§2) The experimental protocol voltage-clamp using the whole cell configuration was established on the automated ScreenPatch® 384P platform (SP384PE, Nanion Technologies, Livingston, NJ) and the results were recorded with a Nanion 384-well Patch Clamp chip (NPC) (Nanion Technologies, Livingston, NJ).
(§3) Formula I compounds were diluted in eight concentrations in the extracellular solution composed of saline solution, buffered with HEPES (mM): NaCl, 137; KCl, 4; CaCl2, 3,8; MgCl2, 1; HEPES, 10; Glucose, 10; pH 7.4. The […], 50; CsF, 90; MgCl2, 5; EGTA, 5; HEPES, 10; pH 7.2. The duration of exposure of each compound with cells expressing Nav 1.7 or Nav 1.8 was at least five minutes and the assays were performed at room temperature.
(§4) The measurements of the sodium currents of Nav 1.8 and Nav 1.7 were obtained using the voltage protocol described below.
(§5) A holding voltage of -100 mV was established followed by an inactivation voltage step at -40 mV for 8 seconds, followed by a step of -100 mV for 20 ms, followed by a 20 ms step for 10 mV for Nav 1.8 or 0 mV for Nav 1.7 (TP1A) before returning to the holding voltage of -100 mV.
(§6) The protocol was repeated at a frequency of 0.05 Hz and the amplitude of the current was quantified throughout the recording of the TP1A phase. The variation in the amplitude of the peak current was evaluated according to the formula described below, after exposing the cells expressing the channels to each concentration of the different compounds: % Block = (1−(ITP1A,molecule/ITP1A,basal)×100%, [formula] wherein ITP1A,basal and ITP1A,molecule represent the peaks of sodium current input into TP1A before exposure to the compound and in the presence of the compound, respectively.
(§7) Data were obtained by nonlinear regression (nonlinear least squares) with XLfit for Excel (Microsoft, Redmond, WA).
(§8) The compounds were tested in at least one assay to obtain the value of CI50. For compounds that were tested in two or more assays, the results are described as the means of the CI50 values.

[2] = target: T2, human sodium channels Nav 1.7 (Homo sapiens, UniProt Q15858); assay: Automated whole-cell voltage-clamp (ScreenPatch 384P) sodium current block, Nav 1.7; format: cell-based; details: CHO cells stably expressing human Nav 1.7; inactivation step -40 mV 8 s, test step 0 mV (TP1A); eight concentrations; exposure at least five minutes; room temperature; read-out: Nav1.7 IC50
T2 construct: expressed in transfected cells
T2 sequence (Q15858 whole entry): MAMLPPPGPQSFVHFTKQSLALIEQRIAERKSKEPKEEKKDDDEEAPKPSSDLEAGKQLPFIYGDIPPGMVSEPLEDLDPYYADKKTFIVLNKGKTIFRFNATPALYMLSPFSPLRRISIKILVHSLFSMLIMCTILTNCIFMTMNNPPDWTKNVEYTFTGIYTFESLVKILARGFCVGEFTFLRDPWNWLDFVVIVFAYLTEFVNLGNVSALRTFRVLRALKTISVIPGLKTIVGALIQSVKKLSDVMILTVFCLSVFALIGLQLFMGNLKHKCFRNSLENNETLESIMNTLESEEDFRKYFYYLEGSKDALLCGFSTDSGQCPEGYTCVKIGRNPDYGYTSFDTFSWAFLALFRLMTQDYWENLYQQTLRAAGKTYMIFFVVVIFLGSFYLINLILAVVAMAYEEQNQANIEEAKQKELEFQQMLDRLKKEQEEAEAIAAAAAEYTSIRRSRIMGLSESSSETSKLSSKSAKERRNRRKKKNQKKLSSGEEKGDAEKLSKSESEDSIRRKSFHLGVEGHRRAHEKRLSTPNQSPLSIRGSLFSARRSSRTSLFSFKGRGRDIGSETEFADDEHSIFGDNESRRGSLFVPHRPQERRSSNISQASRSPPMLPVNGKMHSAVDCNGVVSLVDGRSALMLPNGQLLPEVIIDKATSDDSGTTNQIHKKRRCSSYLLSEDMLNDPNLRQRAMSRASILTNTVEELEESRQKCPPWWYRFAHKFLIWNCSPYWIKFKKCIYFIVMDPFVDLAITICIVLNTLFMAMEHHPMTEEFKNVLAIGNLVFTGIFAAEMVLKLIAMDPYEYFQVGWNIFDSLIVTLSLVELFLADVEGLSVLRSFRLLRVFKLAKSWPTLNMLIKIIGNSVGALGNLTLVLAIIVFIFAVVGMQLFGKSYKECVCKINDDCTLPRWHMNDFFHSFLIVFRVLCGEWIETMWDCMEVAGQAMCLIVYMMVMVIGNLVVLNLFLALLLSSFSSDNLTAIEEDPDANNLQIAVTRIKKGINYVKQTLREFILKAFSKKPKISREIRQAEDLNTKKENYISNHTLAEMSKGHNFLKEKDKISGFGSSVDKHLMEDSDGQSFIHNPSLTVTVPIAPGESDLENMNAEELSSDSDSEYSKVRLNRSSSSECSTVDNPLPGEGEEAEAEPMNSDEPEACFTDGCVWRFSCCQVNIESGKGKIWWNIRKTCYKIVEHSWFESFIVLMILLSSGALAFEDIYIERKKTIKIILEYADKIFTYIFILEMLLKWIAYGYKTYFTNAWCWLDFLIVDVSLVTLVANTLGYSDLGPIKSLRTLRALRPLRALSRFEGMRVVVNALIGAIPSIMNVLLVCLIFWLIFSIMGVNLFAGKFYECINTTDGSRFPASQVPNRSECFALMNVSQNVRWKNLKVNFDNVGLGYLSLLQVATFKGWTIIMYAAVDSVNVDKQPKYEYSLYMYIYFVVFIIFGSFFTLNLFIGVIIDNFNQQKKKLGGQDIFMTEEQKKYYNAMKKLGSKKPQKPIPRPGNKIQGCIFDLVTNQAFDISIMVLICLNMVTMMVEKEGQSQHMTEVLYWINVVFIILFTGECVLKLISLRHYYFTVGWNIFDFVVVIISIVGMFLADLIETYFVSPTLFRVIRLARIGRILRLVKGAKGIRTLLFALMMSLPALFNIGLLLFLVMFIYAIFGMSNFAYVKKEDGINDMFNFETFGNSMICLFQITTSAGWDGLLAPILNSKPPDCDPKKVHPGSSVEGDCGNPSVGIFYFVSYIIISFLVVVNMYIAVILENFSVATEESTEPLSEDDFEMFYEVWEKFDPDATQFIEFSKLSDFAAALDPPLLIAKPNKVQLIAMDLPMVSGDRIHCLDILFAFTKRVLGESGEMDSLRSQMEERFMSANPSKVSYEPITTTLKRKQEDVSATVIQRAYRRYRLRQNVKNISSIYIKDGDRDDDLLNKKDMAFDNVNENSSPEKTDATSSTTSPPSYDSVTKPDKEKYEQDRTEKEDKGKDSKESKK
Method: as §1, §2, §3, §4, §5, §6, §7, §8

| IC50 [1] | IC50 [2] | SMILES |
| --- | --- | --- |
| < 500 nM | > 1000 nM | [2H]C([2H])([2H])Oc1cnc(F)c(/C=N/NC(=O)c2cncc(-c3ccc(OC([2H])([2H])C([2H])([2H])[2H])nc3)n2)c1 [Compound 174, (E)-6-(6-(ethoxy-d5)pyridine-3-yl)-N'-((2-fluoro-5-(methoxy-d3)pyridine-3-yl)methylene)pyrazine-2-carbohydrazide] |
| < 500 nM | < 500 nM | O=C(N/N=C/c1cc(OC2CC2)ccc1F)c1cncc(-c2ccc(OC3CC3)nc2)n1 [Compound 82, (E)-N'-(5-cyclopropoxy-2-fluorobenzylidene)-6-(6-cyclopropoxypyridine-3-yl)pyrazine-2-carbohydrazide] |
| < 500 nM | > 1000 nM | COc1cnc(F)c(/C=N/NC(=O)c2cncc(-c3ccc(OC(F)F)nc3)n2)c1 [Compound 101, (E)-6-(6-(difluoromethoxy)pyridine-3-yl)-N'-((2-fluoro-5-methoxypyridine-3-yl)methylene)pyrazine-2-carbohydrazide] |
| 500 to 1000 nM | > 1000 nM | CCOc1ccc(-c2cncc(C(=O)N/N=C/c3cc(OC)ncc3F)n2)cn1 [Compound 8, (E)-6-(6-ethoxypyridine-3-yl)-N'-((5-fluoro-2-methoxypyridine-4-yl)methylene)pyrazine-2-carbohydrazide] |
| < 500 nM | 500 to 1000 nM | CCOc1ccc(-c2cncc(C(=O)N/N=C/c3ccc(F)c(OC)c3)n2)cn1 [Compound 2, (E)-6-(6-ethoxypyridine-3-yl)-N'-(4-fluoro-3-methoxybenzylidene)pyrazine-2-carbohydrazide] |
| < 500 nM | > 1000 nM | CCOc1ccc(-c2cncc(C(=O)N/N=C/c3cc(N(C)C)ccc3F)n2)cn1 [Compound 11, (E)-N'-(5-(dimethylamino)-2-fluorobenzylidene)-6-(6-ethoxypyridine-3-yl)pyrazine-2-carbohydrazide] |
| < 500 nM | > 1000 nM | COc1cnc(F)c(/C=N/NC(=O)c2cncc(-c3ccc(OC(F)F)nc3C)n2)c1 [Compound 159, (E)-6-(6-(difluoromethoxy)-2-methylpyridine-3-yl)-N'-((2-fluoro-5-methoxypyridine-3-yl)methylene)pyrazine-2-carbohydrazide] |
| > 1000 nM | > 1000 nM | CCOc1ccc(-c2cncc(C(=O)N/N=C/c3occc3OC)n2)cn1 [Compound 55, (E)-6-(6-ethoxypyridine-3-yl)-N'-((3-methoxyfuran-2-yl)methylene)pyrazine-2-carbohydrazide] |
| > 1000 nM | > 1000 nM | COc1cc(/C=N/NC(=O)c2cncc(-c3ccc(OC(F)F)nc3)n2)cc(O)n1 [Compound 118, (E)-6-(6-(difluoromethoxy)pyridine-3-yl)-N'-((2-hydroxy-6-methoxypyridine-4-yl)methylene)pyrazine-2-carbohydrazide] |
| < 500 nM | > 1000 nM | [2H]C([2H])([2H])Oc1cnc(F)c(/C=N/NC(=O)c2cncc(-c3ccc(OCC)nc3)n2)c1 [Compound 171, (E)-6-(6-ethoxypyridine-3-yl)-N'-((2-fluoro-5-(methoxy-d3)pyridine-3-yl)methylene) pyrazine-2-carbohydrazide] |
| > 1000 nM | > 1000 nM | CCOc1ccc(-c2cncc(C(=O)N/N=C/c3cc(N4CC(O)C4)ccc3F)n2)cn1 [Compound 37, (E)-6-(6-ethoxypyridine-3-yl)-N'-(2-fluoro-5-(3-hydroxyazetidine-1-yl)benzylidene) pyrazine-2-carbohydrazide] |
| > 1000 nM | > 1000 nM | CCOc1ccc(-c2cncc(C(=O)N/N=C/c3cc(C(=O)O)ccc3F)n2)cn1 [Compound 10, (E)-3-(2-(6-(6-(6-ethoxypyridine-3-yl)pyrazine-2-carbonyl)hydrazinylidene)methyl)-4-fluorobenzoic acid] |
| > 1000 nM | > 1000 nM | COc1ccc(F)c(/C=N/NC(=O)c2cncc(-c3ccc(OCC(C)N)nc3)n2)c1 (stereo not drawn) [Compound 136, (E)-6-(6-(2-aminopropoxy)pyridine-3-yl)-N'-(2-fluoro-5-methoxybenzylidene) pyrazine-2-carbohydrazide] |
| 500 to 1000 nM | > 1000 nM | CCOc1ccc(-c2cncc(C(=O)N/N=C/c3[nH]ccc3C)n2)cn1 [Compound 56, (E)-6-(6-ethoxypyridine-3-yl)-N'-((3-methyl-1H-pyrrole-2-yl)methylene)pyrazine-2-carbohydrazide] |
| < 500 nM | > 1000 nM | CCOc1ccc(F)c(/C=N/NC(=O)c2cncc(-c3ccc(OC(F)(F)F)nc3)n2)c1 [Compound 91, (E)-N'-(5-ethoxy-2-fluorobenzylidene)-6-(6-(trifluoromethoxy)pyridine-3-yl)pyrazine-2-carbohydrazide] |
| > 1000 nM | > 1000 nM | CCOc1ccc(-c2cncc(C(=O)N/N=C/c3cncn3C(C)C)n2)cn1 [Compound 53, (E)-6-(6-ethoxypyridine-3-yl)-N'-((1-isopropyl-1H-imidazole-5-yl)methylene)pyrazine-2-carbohydrazide] |
| > 1000 nM | > 1000 nM | CCOc1ccc(-c2cnc(O)c(C(=O)N/N=C/c3cc(OC)cnc3F)n2)cn1 [Compound 65, (E)-6-(6-ethoxypyridine-3-yl)-N'-((2-fluoro-5-methoxypyridine-3-yl)methylene)-3-hydroxypyrazine-2-carbohydrazide] |
| < 500 nM | < 500 nM | CCOc1ccc(-c2cncc(C(=O)N/N=C/c3cc(OC(C)C)ccc3F)n2)cn1 [Compound 5, (E)-6-(6-ethoxypyridine-3-yl)-N'-(2-fluoro-5-isopropoxybenzylidene)pyrazine-2-carbohydrazide] |
| 500 to 1000 nM | > 1000 nM | COc1cc(O)c(F)c(/C=N/NC(=O)c2cncc(-c3ccc(OC(F)F)nc3)n2)c1 [Compound 119, (E)-6-(6-(difluoromethoxy)pyridine-3-yl)-N'-(2-fluoro-3-hydroxy-5-methoxybenzylidene)pyrazine-2-carbohydrazide] |
| < 500 nM | > 1000 nM | CCOc1ccc(-c2cncc(C(=O)N/N=C/c3cc(C(C)O)ccc3F)n2)cn1 (stereo not drawn) [Compound 23, (E)-6-(6-ethoxypyridine-3-yl)-N'-(2-fluoro-5-(1-hydroxyethyl)benzylidene)pyrazine-2-carbohydrazide] |
| > 1000 nM | > 1000 nM | COc1ccc(F)c(/C=N/NC(=O)c2cncc(-c3ccc(C#N)nc3)n2)c1 [Compound 130, (E)-6-(6-cyanopyridine-3-yl)-N'-(2-fluoro-5-methoxybenzylidene)pyrazine-2-carbohydrazide] |
| < 500 nM | > 1000 nM | [2H]C([2H])([2H])C([2H])([2H])Oc1ccc(-c2cncc(C(=O)N/N=C/c3cc(OC)cnc3F)n2)cn1 [Compound 170, (E)-6-(6-(ethoxy-d5)pyridine-3-yl)-N'-((2-fluoro-5-methoxypyridine-3-yl)methylene) pyrazine-2-carbohydrazide] |
| > 1000 nM | > 1000 nM | COc1cncc(/C=N/NC(=O)c2cncc(-c3ccc(OC(F)F)nc3)n2)c1 [Compound 107, (E)-6-(6-(difluoromethoxy)pyridine-3-yl)-N'-((5-methoxypyridine-3-yl)methylene)pyrazine-2-carbohydrazide] |
| < 500 nM | 500 to 1000 nM | CCOc1ccc(-c2cccc(C(=O)N/N=C/c3cc(OC)cnc3F)n2)cn1 [Compound 71, (E) -6'-ethoxy-N'-((2-fluoro-5-methoxypyridine-3-yl)methylene)-[2,3'-bipyridine]-6-carbohydrazide] |
| > 1000 nM | > 1000 nM | CCOc1cc(OC)c(-c2cncc(C(=O)N/N=C/c3cc(OC)cnc3F)n2)cn1 [Compound 153, (E)-6-(6-ethoxy-4-methoxypyridine-3-yl)-N'-((2-fluoro-5-methoxypyridine-3-yl)methylene)pyrazine-2-carbohydrazide] |
| > 1000 nM | > 1000 nM | CCOc1ccc(-c2cncc(C(=O)N/N=C/c3[nH]ccc3C#N)n2)cn1 [Compound 59, (E)-N'-((3-cyano-1H-pyrrole-2-yl)methylene)-6-(6-ethoxypyridine-3-yl)pyrazine-2-carbohydrazide] |

| SMILES | IC50 [1] | IC50 [2] |
| --- | --- | --- |
| CCOc1ccc(-c2cncc(C(=O)N/N=C/c3cc(S(N)(=O)=O)ccc3F)n2)cn1 [Compound 14, (E)-3-((2-(6-(6-ethoxypyridine-3-yl)pyrazine-2-carbonyl)hydrazinylidene)methyl)-4-fluorobenzenesulfonamide] | > 1000 nM | > 1000 nM |
